Where a name gives a salt, the structure may show the parent alone.
Columns and labels:
hPDE4B = hPDE4B (Homo sapiens, UniProt Q07343); test: In-vitro real-time enzyme-coupled spectrophotometric assay for PDE4 enzymes (hPDE4B)
hPDE4D = hPDE4D (Homo sapiens, UniProt Q08499); test: In-vitro real-time enzyme-coupled spectrophotometric assay for PDE4 enzymes (hPDE4D)
hPDE4D, sequence (Q08499 whole entry): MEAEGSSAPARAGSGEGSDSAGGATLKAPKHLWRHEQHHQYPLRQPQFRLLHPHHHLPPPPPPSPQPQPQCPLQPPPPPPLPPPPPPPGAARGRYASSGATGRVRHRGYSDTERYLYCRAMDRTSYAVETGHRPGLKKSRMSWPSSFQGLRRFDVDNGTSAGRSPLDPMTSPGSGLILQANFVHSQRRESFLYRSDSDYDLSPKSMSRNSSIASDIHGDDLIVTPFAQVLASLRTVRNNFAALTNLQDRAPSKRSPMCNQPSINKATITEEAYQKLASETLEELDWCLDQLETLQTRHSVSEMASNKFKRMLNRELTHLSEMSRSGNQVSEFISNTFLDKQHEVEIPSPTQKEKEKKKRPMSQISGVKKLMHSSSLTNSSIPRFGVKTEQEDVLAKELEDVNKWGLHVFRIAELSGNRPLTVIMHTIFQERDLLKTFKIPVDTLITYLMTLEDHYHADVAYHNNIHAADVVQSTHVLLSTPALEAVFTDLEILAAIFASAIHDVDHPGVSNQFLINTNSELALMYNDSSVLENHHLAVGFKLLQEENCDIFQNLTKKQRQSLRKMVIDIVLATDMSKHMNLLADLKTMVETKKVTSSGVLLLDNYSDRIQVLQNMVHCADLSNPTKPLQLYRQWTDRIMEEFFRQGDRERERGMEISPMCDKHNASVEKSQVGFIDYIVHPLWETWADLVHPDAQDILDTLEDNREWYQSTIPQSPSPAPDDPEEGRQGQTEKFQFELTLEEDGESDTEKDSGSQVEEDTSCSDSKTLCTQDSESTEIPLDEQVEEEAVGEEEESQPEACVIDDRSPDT

hPDE4B, sequence (Q07343 whole entry): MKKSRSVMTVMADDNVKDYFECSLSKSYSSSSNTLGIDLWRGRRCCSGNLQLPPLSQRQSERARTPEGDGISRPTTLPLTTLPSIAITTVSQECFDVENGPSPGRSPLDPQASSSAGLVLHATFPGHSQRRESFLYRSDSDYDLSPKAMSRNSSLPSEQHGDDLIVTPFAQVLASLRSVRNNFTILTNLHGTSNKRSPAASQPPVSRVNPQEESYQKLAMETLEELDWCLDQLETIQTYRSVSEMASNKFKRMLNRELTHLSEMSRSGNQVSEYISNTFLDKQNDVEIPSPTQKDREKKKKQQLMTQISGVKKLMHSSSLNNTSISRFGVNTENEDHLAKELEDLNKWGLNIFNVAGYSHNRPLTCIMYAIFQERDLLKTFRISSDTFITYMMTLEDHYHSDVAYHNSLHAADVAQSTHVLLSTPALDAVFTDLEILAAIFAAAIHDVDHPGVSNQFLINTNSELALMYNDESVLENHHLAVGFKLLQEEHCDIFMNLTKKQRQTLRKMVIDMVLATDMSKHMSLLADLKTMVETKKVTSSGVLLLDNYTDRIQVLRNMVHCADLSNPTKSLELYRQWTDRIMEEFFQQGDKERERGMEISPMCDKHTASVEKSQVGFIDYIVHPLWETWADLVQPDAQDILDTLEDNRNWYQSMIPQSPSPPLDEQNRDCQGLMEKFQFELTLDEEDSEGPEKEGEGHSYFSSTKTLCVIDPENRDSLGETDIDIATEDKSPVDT

COc1ccc(Cc2ccc(NC(N)=O)[n+]([O-])c2)c(F)c1-c1cccc(Cl)c1 [Example A-014] gave an IC50 (hPDE4B) of 5 to 20 µM and an IC50 (hPDE4D) of under 5 µM.

COc1ccc(Cc2cnc(NC(N)=O)[n+]([O-])c2)c(F)c1-c1cccc(Cl)c1 [Example A-015] was tested, and the IC50 (hPDE4B) was under 5 µM and the IC50 (hPDE4D) was under 5 µM.

In the case of COc1ccc(Cc2ccc(NS(N)(=O)=O)cc2)c(F)c1-c1cccc(C(C)=O)c1 [Example A-016], the IC50 (hPDE4B) is reported as under 5 µM and the IC50 (hPDE4D) is reported as under 5 µM.

In the case of COc1ccc(Cc2cnc(NS(N)(=O)=O)nc2)c(F)c1-c1cccc(C(C)=O)c1 [Example A-017], the IC50 (hPDE4B) is reported as under 5 µM and the IC50 (hPDE4D) is reported as under 5 µM.

In the case of COC(=O)c1ccc(Cc2ccc(OC)c(-c3cccc(C(C)=O)c3)c2F)cc1 [Example A-018, 4-(3′-Acetyl-2-fluoro-6-methoxy-biphenyl-3-ylmethyl)-benzoic acid methyl ester], the IC50 (hPDE4B) is reported as 20 to 40 µM and the IC50 (hPDE4D) is reported as under 5 µM.

In the case of COc1ccc(Cc2ccc(C(=O)O)cc2)c(F)c1-c1cccc(C(C)=O)c1 [Example A-019, 4-(3′-Acetyl-2-fluoro-6-methoxy-biphenyl-3-ylmethyl)-benzoic acid], the IC50 (hPDE4B) is reported as 5 to 20 µM and the IC50 (hPDE4D) is reported as under 5 µM.

COC(=O)c1ccc(Cc2ccc(OC)c(-c3cccc(C(C)=O)c3)c2F)cn1 [Example A-020, 5-(3′-Acetyl-2-fluoro-6-methoxy-biphenyl-3-ylmethyl)-pyridine-2-carboxylic acid methyl ester] showed an IC50 (hPDE4B) of under 5 µM and an IC50 (hPDE4D) of under 5 µM.

Work on COc1ccc(Cc2ccc(C(=O)O)nc2)c(F)c1-c1cccc(C(C)=O)c1 [Example A-021, 5-(3′-Acetyl-2-fluoro-6-methoxy-biphenyl-3-ylmethyl)-pyridine-2-carboxylic acid] yielded an IC50 (hPDE4B) of 5 to 20 µM and an IC50 (hPDE4D) of 5 to 20 µM.

COc1ccc(Cc2nnc(NC(=O)NCCC(=O)O)s2)c(F)c1-c1cccc(Cl)c1 [Example A-027, 3-{3-[5-(3′-Chloro-2-fluoro-6-methoxy-biphenyl-3-ylmethyl)-[1,3,4]thiadiazol-2-yl]-ureido}-propionic acid] was tested, and the IC50 (hPDE4B) was 20 to 40 µM and the IC50 (hPDE4D) was under 5 µM.

For COc1ccc(Cc2ccc(NC(=O)NCC(=O)O)nc2)c(F)c1-c1cccc(Cl)c1 [Example A-028], the IC50 (hPDE4B) was under 5 µM and the IC50 (hPDE4D) was under 5 µM.

For CCOC(=O)CCCNC(=O)Nc1nnc(Cc2ccc(OC)c(-c3cccc(Cl)c3)c2F)s1 [Example A-030, 4-{3-[5-(3′-Chloro-2-fluoro-6-methoxy-biphenl-3-ylmethyl)-[1,3,4]thiadiazol-2-yl]-ureido}-butyric acid ethyl ester], the IC50 (hPDE4B) was 5 to 20 µM and the IC50 (hPDE4D) was under 5 µM.

Compound COc1ccc(Cc2nnc(NC(=O)NCCCC(=O)O)s2)c(F)c1-c1cccc(Cl)c1 [Example A-031, 4-{3-[5-(3′-Chloro-2-fluoro-6-methoxy-biphenyl-3-ylmethyl)-[1,3,4]thiadiazol-2-yl]-ureido}-butyric acid] has an IC50 (hPDE4B) of 5 to 20 µM and an IC50 (hPDE4D) of under 5 µM.

With COc1ccc(Cc2ccc(NC(=O)NCCC(=O)O)nc2)c(F)c1-c1cccc(Cl)c1 [Example A-032] the IC50 (hPDE4B) was 5 to 20 µM and the IC50 (hPDE4D) was under 5 µM.

COc1ccc(Cc2ccc(C(=O)N3CCC(C(=O)O)CC3)nc2)c(F)c1-c1cccc(Cl)c1 [Example A-034, 1-[5-(3′-Chloro-2-fluoro-6-methoxy-biphenyl-3-ylmethyl)-pyridine-2-carbonyl]-piperidine-4-carboxylic acid] was tested, and the IC50 (hPDE4B) was 20 to 40 µM and the IC50 (hPDE4D) was under 5 µM.

In the case of COc1ccc(Cc2ccc(NCC(=O)O)nc2)c(F)c1-c1cccc(Cl)c1 [Example A-035, [5-(3′-chloro-2-fluoro-6-methoxy-biphenyl-3-ylmethyl)-pyridin-2-ylamino]-acetic acid], the IC50 (hPDE4B) is reported as under 5 µM and the IC50 (hPDE4D) is reported as under 5 µM.

Compound COc1ccc(Cc2ccc(O)nc2)c(F)c1-c1cccc(Cl)c1 [Example A-036] has an IC50 (hPDE4B) of under 5 µM and an IC50 (hPDE4D) of under 5 µM.

COc1ccc(Cc2ccc(N(CC(=O)O)C(C)=O)nc2)c(F)c1-c1cccc(Cl)c1 [Example A-037, {acetyl-[5-(3′-chloro-2-fluoro-6-methoxy-biphenyl-3-ylmethyl)-pyridin-2-yl]-amino}-acetic acid] gave an IC50 (hPDE4B) of under 5 µM and an IC50 (hPDE4D) of under 5 µM.

COc1ccc(Cc2ccc(C(=O)N3CCC(C(=O)O)C3)nc2)c(F)c1-c1cccc(Cl)c1 (centres unmarked) [Example A-038, 1-[5-(3′-Chloro-2-fluoro-6-methoxy-biphenyl-3-ylmethyl)-pyridine-2-carbonyl]-pyrrolidine-3-carboxylic acid] was tested, and the IC50 (hPDE4B) was under 5 µM and the IC50 (hPDE4D) was under 5 µM.

In the case of COc1ccc(Cc2cnc(N3CCCC3C(=O)O)nc2)c(F)c1-c1cccc(Cl)c1 (centres unmarked) [Example A-040, 1-[5-(3′-Chloro-2-fluoro-6-methoxy-biphenyl-3-ylmethyl)-pyrimidin-2-yl]-pyrrolidine-2-carboxylic acid], the IC50 (hPDE4B) is reported as under 5 µM and the IC50 (hPDE4D) is reported as under 5 µM.

Work on COc1ccc(Cc2ccc(-c3nnn[nH]3)nc2)c(F)c1-c1cccc(Cl)c1 [Example A-042, 5-(3′-Chloro-2-fluoro-6-methoxy-biphenyl-3-ylmethyl)-2-(1H-tetrazol-5-yl)-pyridine] yielded an IC50 (hPDE4B) of under 5 µM and an IC50 (hPDE4D) of under 5 µM.

Compound COc1ccc(Cc2ccc3nc(C(=O)O)cn3c2)c(F)c1-c1cccc(Cl)c1 [Example A-043, 6-(3′-Chloro-2-fluoro-6-methoxy-biphenyl-3-ylmethyl)-imidazo[1,2-a]pyridine-2-carboxylic acid] has an IC50 (hPDE4B) of 5 to 20 µM and an IC50 (hPDE4D) of under 5 µM.

COc1ccc(Cc2cnc(N3CCC(C(=O)O)C3)nc2)c(F)c1-c1cccc(Cl)c1 (centres unmarked) [Example A-044, 1-[5-(3′-Chloro-2-fluoro-6-methoxy-biphenyl-3-ylmethyl)-pyrimidin-2-yl]-pyrrolidine-3-carboxylic acid] showed an IC50 (hPDE4B) of 20 to 40 µM and an IC50 (hPDE4D) of under 5 µM.

In the case of COc1ccc(Cc2cnc(N(C)CC(=O)O)nc2)c(F)c1-c1cccc(Cl)c1 [Example A-047, {[5-(3′-Chloro-2-fluoro-6-methoxy-biphenyl-3-ylmethyl)-pyrimidin-2-yl]-methyl-amino}-acetic acid], the IC50 (hPDE4B) is reported as under 5 µM and the IC50 (hPDE4D) is reported as under 5 µM.

Compound CCOC(=O)C(=O)NCc1ccc(Cc2ccc(OC)c(-c3cccc(Cl)c3)c2F)cn1 [Example A-048, N-[5-(3′-Chloro-2-fluoro-6-methoxy-biphenyl-3-ylmethyl)-pyridin-2-ylmethyl]-oxalamic acid ethyl ester] has an IC50 (hPDE4B) of under 5 µM and an IC50 (hPDE4D) of under 5 µM.

Compound COc1ccc(Cc2cnc(N3CCC3C(=O)O)nc2)c(F)c1-c1cccc(Cl)c1 (centres unmarked) [Example A-049, 1-[5-(3′-Chloro-2-fluoro-6-methoxy-biphenyl-3-ylmethyl)-pyrimidin-2-yl]-azetidine-2-carboxylic acid] has an IC50 (hPDE4B) of under 5 µM and an IC50 (hPDE4D) of under 5 µM.

COc1ccc(Cc2ccc(C(=O)NS(C)(=O)=O)nc2)c(F)c1-c1cccc(Cl)c1 [Example A-050, N-[5-(3′-Chloro-2-fluoro-6-methoxy-biphenyl-3-ylmethyl)-pyridine-2-carbonyl]-methanesulfonamide] was tested, and the IC50 (hPDE4B) was under 5 µM and the IC50 (hPDE4D) was under 5 µM.

For COc1ccc(Cc2ccc3cnc(C(=O)O)n3c2)c(F)c1-c1cccc(Cl)c1 [Example A-051, 6-(3′-Chloro-2-fluoro-6-methoxy-biphenyl-3-ylmethyl)-imidazo[1,5-a]pyridine-3-carboxylic acid hydrochloride], the IC50 (hPDE4B) was under 5 µM and the IC50 (hPDE4D) was under 5 µM.

COc1ccc(Cc2cnc(N3CC(C(=O)O)C3)nc2)c(F)c1-c1cccc(Cl)c1 [Example A-053, 1-[5-(3′-Chloro-2-fluoro-6-methoxy-biphenyl-3-ylmethyl)-pyrimidin-2-yl]-azetidine-3-carboxylic acid] showed an IC50 (hPDE4B) of 5 to 20 µM and an IC50 (hPDE4D) of under 5 µM.
